The conditions of series [1]: background; cited from earlier work.
The conditions of series [2]: in vivo; cited from earlier work.
For series [3] the following is noted: background; cited from earlier work. The source holds these as a separate data set.
Series [4] can be described thus: Biodistribution of 153Sm complex after tail vein injection. Type of series: in vivo, Sprague Dawley rats. Particulars: rat, i.v. tail vein; for % INJECTED DOSE, Blood: blood assumed 6.5% of body weight; for % INJECTED DOSE, Bone: femur x 25; for % INJECTED DOSE, Muscle: muscle assumed 43% of body weight. The protocol: Sprague Dawley rats were allowed to acclimate for five days then injected with 100 μL of the complex solution via a tail vein. The rats weighed between 150 and 200 g at the time of injection. After 30 min. the rats were killed by cervical dislocation and dissected. The amount of radioactivity in each tissue was determined by counting in a NaI scintillation counter coupled to a multichannel analyzer. The counts were compared to the counts in 100 μL standards in order to determine the percentage of the dose in each tissue or organ.
The percent dose in blood was estimated assuming blood to be 6.5% of the total body weight. The percent dose in bone was estimated by multiplying the percent dose in the femur by 25. The percent dose in muscle was estimated assuming muscle to be 43% of the total body weight. The number of rats used in the average is n.
In addition to organ biodistribution, chelates of the compounds of Formula (I) were evaluated for efficiency of bone localization since phosphonates are known for their ability to bind to hydroxyapatite.
When the complex ^153 Sm[N-(2-pyridylmethyl)-N',N",N'"-tris(methylenephosphonic acid ethyl ester)-1,4,7,10-tetraazacyclododecane] The numbers represent the average of a minimum of 2 rats per data point at 2 hours post injection.
When the complex ^153 Sm[N-(2-pyridylmethyl)-N',N",N'"-tris(methylenephosphonic acid propyl ester)-1,4,7,10-tetraazacyclododecane] The numbers represent the average of a minimum of 3 rats per data point at 2 and 24 hours post injection.

Where two headings read alike, the source gives them in different places.

Take `[Cl][Gd]([Cl])[Cl]` [GdCl3]: the “side effects / toxicity” value in series [1] is “toxic to an animal”.

On to `CNC[C@H](O)[C@@H](O)[C@H](O)[C@H](O)CO.CNC[C@H](O)[C@@H](O)[C@H](O)[C@H](O)CO.O=C([O-])CN(CCN(CC(=O)[O-])CC(=O)O)CCN(CC(=O)[O-])CC(=O)O.[Gd+3]` [Magnevist™, complex of gadolinium with diethylenetriaminepentaacetic acid], for which, in series [2], the distribution and elimination result is recorded as “freely distribute in extracellular fluid followed by efficient elimination through the renal system”.

As to `CC(O)CN1CCN(CC(=O)[O-])CCN(CC(=O)[O-])CCN(CC(=O)[O-])CC1.[Gd+3]` (stereo not drawn) [Prohance™, [1,4,7-tris(carboxymethyl)-10-(2-hydroxypropyl)-1,4,7,10-tetraazacyclododecanato]gadolinium], the “kinetic stability of DO3A derivative chelates” value in series [3] is given as “gains added kinetic stability by virtue of a pendant hydroxyl moiety”. Besides, the “side effects / toxicity” value in series [1] was “fewer side effects than Magnevist™”. Moreover, the distribution and elimination entry in series [2] is listed as “freely distribute in extracellular fluid followed by efficient elimination through the renal system”.

On to `O=C([O-])CN1CCN(CC(=O)[O-])CCN(Cc2ccccn2)CCN(CC(=O)[O-])CC1.[153Sm+3]` [^153 Sm-PD3A], for which the “% Complex” value by setting is: (pH 1) 98.30%; (pH 2) 99.38%; (pH 4) 99.62%; (pH 7) 99.86%; (pH 9) 99.86%; (pH 11) 99.80%. Besides, the “% Complex” value (pH 14) is recorded as 99.96%.

On to `CCOP(=O)([O-])CN1CCN(Cc2ccccn2)CCN(CP(=O)([O-])OCC)CCN(CP(=O)([O-])OCC)CC1.[153Sm+3]` [^153 Sm-PD3EP, ^153 Sm[N-(2-pyridylmethyl)-N',N",N'"-tris(methylenephosphonic acid ethyl ester)-1,4,7,10-tetraazacyclododecane]], for which, in series [4] (2 hours post injection), the “% INJECTED DOSE, Brain” value worked out at 0.01 % INJECTED DOSE; the “% INJECTED DOSE, Heart” value is given as 0.01 % INJECTED DOSE; the “% INJECTED DOSE, Kidney” value is 1.24 % INJECTED DOSE; the “% INJECTED DOSE, Liver” value was 0.36 % INJECTED DOSE. Moreover, in series [4] (2 hours post injection), the “% INJECTED DOSE, Lung” value is recorded as 0.02 % INJECTED DOSE; the “% INJECTED DOSE, Spleen” value was 0.01 % INJECTED DOSE; the “% INJECTED DOSE, Urine” value is 97.00 % INJECTED DOSE; the “% INJECTED DOSE, Blood” value came to 0.45 % INJECTED DOSE. In addition, in series [4] (2 hours post injection), the “% INJECTED DOSE, Bone” value is given as 0.82 % INJECTED DOSE and the “% INJECTED DOSE, Muscle” value worked out at 0.62 % INJECTED DOSE. Further, the “% Complex” value (pH 1) turned out to be 78.95%. Moreover, under “pH 3”, the “% Complex” value came out at 93.80%. Besides, under “pH 5”, the “% Complex” value is 93.02%. Besides, the “% Complex” value (pH 7) came out at 93.77%. In addition, the “% Complex” value (pH 9) worked out at 95.89%. For the same compound, the “% Complex” value (pH 11) came to 95.77%. In addition, the “% Complex” value (pH 14) was found to be 94.07%.

Take `CCCOP(=O)([O-])CN1CCN(Cc2ccccn2)CCN(CP(=O)([O-])OCCC)CCN(CP(=O)([O-])OCCC)CC1.[153Sm+3]` [^153 Sm-PD3PP, ^153 Sm[N-(2-pyridylmethyl)-N',N",N'"-tris(methylenephosphonic acid propyl ester)-1,4,7,10-tetraazacyclododecane]]: in series [4] (2 hours post injection), the “% INJECTED DOSE, Brain” value turned out to be 0.04 % INJECTED DOSE; the “% INJECTED DOSE, Heart” value turned out to be 0.04 % INJECTED DOSE; the “% INJECTED DOSE, Kidney” value stood at 0.86 % INJECTED DOSE; the “% INJECTED DOSE, Large Intestine” value was found to be 0.18 % INJECTED DOSE. In series [4] (2 hours post injection), the “% INJECTED DOSE, Liver” value worked out at 20.36 % INJECTED DOSE; the “% INJECTED DOSE, Lung” value amounted to 0.20 % INJECTED DOSE; the “% INJECTED DOSE, Small intestine” value was 13.56 % INJECTED DOSE; the “% INJECTED DOSE, Spleen” value came to 1.19 % INJECTED DOSE. In addition, in series [4] (2 hours post injection), the “% INJECTED DOSE, Stomach” value was found to be 1.39 % INJECTED DOSE; the “% INJECTED DOSE, Urine” value was 50.00 % INJECTED DOSE; the “% INJECTED DOSE, Blood” value is listed as 0.68 % INJECTED DOSE; the “% INJECTED DOSE, Bone” value stood at 5.93 % INJECTED DOSE. The “% INJECTED DOSE, Muscle” value in series [4] (2 hours post injection) stood at 0.82 % INJECTED DOSE. Besides, in series [4] (24 hours post injection), the “% INJECTED DOSE, Brain” value is listed as 0.00 % INJECTED DOSE; the “% INJECTED DOSE, Feces” value is 5.33 % INJECTED DOSE; the “% INJECTED DOSE, Heart” value was found to be 0.02 % INJECTED DOSE; the “% INJECTED DOSE, Kidney” value came to 0.89 % INJECTED DOSE. Moreover, in series [4] (24 hours post injection), the “% INJECTED DOSE, Large Intestine” value turned out to be 0.16 % INJECTED DOSE; the “% INJECTED DOSE, Liver” value is given as 2.31 % INJECTED DOSE; the “% INJECTED DOSE, Lung” value was determined as 0.40 % INJECTED DOSE; the “% INJECTED DOSE, Small intestine” value is 0.13 % INJECTED DOSE. In series [4] (24 hours post injection), the “% INJECTED DOSE, Spleen” value is on record as 0.22 % INJECTED DOSE; the “% INJECTED DOSE, Stomach” value was found to be 0.04 % INJECTED DOSE; the “% INJECTED DOSE, Urine” value is given as 83.00 % INJECTED DOSE; the “% INJECTED DOSE, Blood” value stood at 0.03 % INJECTED DOSE. Moreover, in series [4] (24 hours post injection), the “% INJECTED DOSE, Bone” value was found to be 12.39 % INJECTED DOSE and the “% INJECTED DOSE, Muscle” value was 0.27 % INJECTED DOSE. Moreover, the “% Complex” value (pH 1) amounted to 72.52%. Also, the “% Complex” value (pH 3) stood at 87.56%. In addition, under “pH 5”, the “% Complex” value was 92.99%. Also, where the note is “pH 7”, the “% Complex” value turned out to be 95.06%. Moreover, the “% Complex” value (pH 9) came to 95.22%. Further, the “% Complex” value (pH 11) came out at 92.74%. Also, for the setting “pH 14”, the “% Complex” value worked out at 87.65%.

(Values after patent publication US5462725A, “2-pyridylmethylenepolyazamacrocyclophosphonic acids, complexes and derivatives thereof, for use as contrast agents” (priority 1993, dated 1995).)
